Test results taken from patent US6440903B1, “Substituted 2,4-diamino-1,3,5-triazines as herbicides” (Bayer Aktiengesellschaft, priority 1996, dated 2002).
Each block holds one compound with its values, some of them ahead of it.

Assays:
weeds [1] = experiment: Pre-emergence test (summary in text); format: in vivo; conditions: result in words
Experimental: (§1) Solvent: 5 parts by weight of acetone
(§2) Emulsifier: 1 part by weight of alkylaryl polyglycol ether
(§3) To produce a suitable preparation of active compound, 1 part by weight of active compound is mixed with the stated amount of solvent, the stated amount of emulsifier is added and the concentrate is diluted with water to the desired concentration.
Seeds of the test plants are sown in normal soil. After about 24 hours, the soil is watered with the preparation of active compound. The amount of water per unit area is advantageously kept constant. The concentration of active compound in the preparation is immaterial, only the application rate of active compound per unit area matters.
After three weeks, the degree of damage to the plants is scored visually in % damage in comparison to the development of the untreated control.
(§4) 0%=no effect (like untreated control)

weeds [2] = experiment: Post-emergence test (summary in text); format: in vivo; conditions: result in words
Experimental: as §1, §2, §3
Test plants which have a height of 5-15 cm are sprayed with the preparation of active compound such that the particular amounts of active compounds desired are applied per unit area. The concentration of the spray liquor is chosen so that the particular amounts of active compound desired are applied in 1000 l of water/ha.
After three weeks, the degree of damage to the plants is scored visually in % damage in comparison to the untreated control.
as §4

Amaranthus = experiment: Post-emergence test; format: in vivo; conditions: greenhouse, scored after three weeks; for pest or weed control at 250 g/ha / pest or weed control at 1000 g/ha / pest or weed control at 500 g/ha: Amaranthus, 504 h, read-out: % damage, Amaranthus; for pest or weed control at 250 g/ha / % damage, Amaranthus: 250 g of ai./ha; for pest or weed control at 1000 g/ha: 1000 g of ai./ha; for pest or weed control at 500 g/ha: 500 g of ai./ha
Experimental: (§5) Post-emergence Test Solvent: 5 parts by weight of acetone Emulsifier: 1 part by weight of alkylaryl polyglycol ether To produce a suitable preparation of active compound, 1 part by weight of active compound is mixed with the stated amount of solvent, the stated amount of emulsifier is added and the concentrate is diluted with water to the desired concentration. Test plants which have a height of 5-15 cm are sprayed with the preparation of active compound such that the particular amounts of active compounds desired are applied per unit area. The concentration of the spray liquor is chosen so that the particular amounts of active compound desired are applied in 1000 l of water/ha. After three weeks, the degree of damage to the plants is scored visually in % damage in comparison to the untreated control. The Figures Denote: 0%=no effect (like untreated control) 100%=total destruction

Chenopodium = experiment: Post-emergence test; format: in vivo; conditions: greenhouse, scored after three weeks; for pest or weed control at 250 g/ha / pest or weed control at 500 g/ha: Chenopodium, 504 h, read-out: % damage, Chenopodium; for pest or weed control at 250 g/ha / % damage, Chenopodium: 250 g of ai./ha; for pest or weed control at 500 g/ha: 500 g of ai./ha
Experimental: as §5

Polygonum = experiment: Post-emergence test; format: in vivo; conditions: greenhouse, scored after three weeks; for pest or weed control at 250 g/ha / pest or weed control at 500 g/ha: Polygonum, 504 h, read-out: % damage, Polygonum; for pest or weed control at 250 g/ha / % damage, Polygonum: 250 g of ai./ha; for pest or weed control at 500 g/ha: 500 g of ai./ha
Experimental: as §5

Setaria = experiment: Post-emergence test; format: in vivo; conditions: greenhouse, scored after three weeks; for pest or weed control at 250 g/ha / pest or weed control at 1000 g/ha / pest or weed control at 500 g/ha: Setaria, 504 h, read-out: % damage, Setaria; for pest or weed control at 250 g/ha / % damage, Setaria: 250 g of ai./ha; for pest or weed control at 1000 g/ha: 1000 g of ai./ha; for pest or weed control at 500 g/ha: 500 g of ai./ha
Experimental: as §5

Viola = experiment: Post-emergence test; format: in vivo; conditions: greenhouse, scored after three weeks; for pest or weed control at 250 g/ha / pest or weed control at 500 g/ha: 504 h, read-out: % damage, Viola; for pest or weed control at 250 g/ha / % damage, Viola: 250 g of ai./ha; for pest or weed control at 500 g/ha: 500 g of ai./ha
Experimental: as §5

Wheat = experiment: Post-emergence test; format: in vivo; conditions: greenhouse, scored after three weeks; for plant injury at 250 g/ha / plant injury at 500 g/ha: Triticum aestivum, 504 h, read-out: % damage, Wheat; for plant injury at 250 g/ha / % damage, Wheat: 250 g of ai./ha; for plant injury at 500 g/ha: 500 g of ai./ha
Experimental: as §5

Sinapis = experiment: Post-emergence test; format: in vivo; conditions: greenhouse, 1000 g of ai./ha, scored after three weeks
Experimental: as §5

Compound: CC(Cl)c1nc(N)nc(NC(C)c2ccc(Cl)cc2)n1 (stereo not shown) [Example 157]
activity against weeds (weeds [1]): strong activity

Compound: CC(Nc1nc(N)nc(C(F)(F)F)n1)c1ccc([S+](C)[O-])cc1 (racemic) [Example 3, 2-amino-4-trifluoromethyl-6-[1-(4-methylsulphinyl-phenyl)-ethylamino]-1,3,5-triazine]
melting point: 220 °C (dec.)

Compound: CC(Nc1nc(N)nc(C(C)(C)F)n1)c1ccc(Cl)cc1 (stereo not shown) [Example 22]
activity against weeds (weeds [1]): strong activity

Compound: CSc1ccc(C(C)Nc2nc(N)nc(C(F)(F)F)n2)cc1 (racemic) [Example 1, 2-amino4-trifluoromethyl-6-[1-(4-methylthio-phenyl)-ethylamino]-1,3,5-triazine]
melting point: 111 °C

Compound: CC(F)c1nc(N)nc(NC(C)c2ccc(Cl)cc2)n1 (stereo not shown) [Example 13]
activity against weeds (weeds [1]): strong activity | activity against weeds (weeds [2]): strong activity

Compound: CCC(Nc1nc(N)nc(C(F)(F)F)n1)c1ccc(Cl)cc1 (stereo not shown) [Example 85]
activity against weeds (weeds [2]): strong activity | melting point: 145 °C

Compound: CC(Nc1nc(N)nc(C(C)(C)F)n1)c1ccc(Cl)cc1 (stereo not shown) [Example 16]
activity against weeds (weeds [1]): strong activity | activity against weeds (weeds [2]): strong activity

Compound: CC(F)c1nc(N)nc(NC(C)c2ccc(Cl)cc2)n1 (stereo not shown) [Example 14]
activity against weeds (weeds [1]): strong activity

Compound: CC(Nc1nc(N)nc(C(C)(Cl)Cl)n1)c1ccc(Cl)cc1 (stereo not shown) [Example 159]
activity against weeds (weeds [1]): strong activity

Compound: CC(Nc1nc(N)nc(C(C)(Cl)Cl)n1)c1ccc(Cl)cc1 (stereo not shown) [drawing 121]
pest or weed control at 250 g/ha (Amaranthus): 100% | pest or weed control at 250 g/ha (Chenopodium): 100% | pest or weed control at 250 g/ha (Polygonum): 100% | pest or weed control at 250 g/ha (Setaria): 80% | pest or weed control at 250 g/ha (Viola): 100% | plant injury at 250 g/ha (Wheat): 10%

Compound: CCC(Nc1nc(N)nc(C(F)(F)F)n1)c1ccc(Cl)cc1 (stereo not shown) [drawing 137]
pest or weed control at 250 g/ha (Amaranthus): 100% | pest or weed control at 250 g/ha (Chenopodium): 100% | pest or weed control at 250 g/ha (Polygonum): 100% | pest or weed control at 250 g/ha (Setaria): 95% | pest or weed control at 250 g/ha (Viola): 100% | % damage, Wheat (Wheat): 0%

Compound: CSc1ccc(C(C)Nc2nc(N)nc(C(C)(Cl)Cl)n2)cc1 (stereo not shown) [Example 126]
activity against weeds (weeds [2]): strong activity | melting point: 133 °C

Compound: CC(Nc1nc(N)nc(C(F)C(F)(F)F)n1)c1ccc(Cl)cc1 (stereo not shown) [drawing 124]
% damage, Amaranthus (Amaranthus): 100% | % damage, Chenopodium (Chenopodium): 100% | % damage, Polygonum (Polygonum): 95% | % damage, Setaria (Setaria): 90% | % damage, Viola (Viola): 95% | % damage, Wheat (Wheat): 10%

Compound: COSc1ccc(C(C)Nc2nc(N)nc(C(C)Cl)n2)cc1 (stereo not shown)
pest or weed control at 1000 g/ha (Amaranthus): 100% | pest or weed control at 1000 g/ha (Setaria): 100% | % damage, Sinapis (Sinapis): 100%

Compound: CC(=O)Nc1nc(NC(C)c2ccc(Cl)cc2)nc(C(Cl)Cl)n1 (stereo not shown) [drawing 133]
pest or weed control at 500 g/ha (Amaranthus): 100% | pest or weed control at 500 g/ha (Chenopodium): 100% | pest or weed control at 500 g/ha (Polygonum): 100% | pest or weed control at 500 g/ha (Setaria): 80% | pest or weed control at 500 g/ha (Viola): 100% | plant injury at 500 g/ha (Wheat): 10%

Compound: COCc1nc(NC(C)=O)nc(NC(C)c2ccc(SOC)cc2)n1 (stereo not shown)
pest or weed control at 1000 g/ha (Amaranthus): 100% | pest or weed control at 1000 g/ha (Setaria): 100% | % damage, Sinapis (Sinapis): 100%

Compound: COCc1nc(NC(C)=O)nc(NC(C)c2ccc(Cl)cc2)n1 (stereo not shown) [drawing 135]
pest or weed control at 500 g/ha (Amaranthus): 100% | pest or weed control at 500 g/ha (Chenopodium): 100% | pest or weed control at 500 g/ha (Polygonum): 100% | pest or weed control at 500 g/ha (Setaria): 70% | pest or weed control at 500 g/ha (Viola): 100% | plant injury at 500 g/ha (Wheat): 10%

Compound: CC(Nc1nc(N)nc(C(Cl)Cl)n1)c1ccc(Cl)cc1 (stereo not shown) [drawing 129]
pest or weed control at 500 g/ha (Amaranthus): 100% | pest or weed control at 500 g/ha (Chenopodium): 100% | pest or weed control at 500 g/ha (Polygonum): 100% | pest or weed control at 500 g/ha (Setaria): 100% | pest or weed control at 500 g/ha (Viola): 100% | plant injury at 500 g/ha (Wheat): 10%

Compound: CC(Nc1nc(N)nc(C(F)C(F)(F)F)n1)c1ccc(Cl)cc1 (stereo not shown) [drawing 128]
% damage, Amaranthus (Amaranthus): 100% | % damage, Chenopodium (Chenopodium): 100% | % damage, Polygonum (Polygonum): 100% | % damage, Setaria (Setaria): 90% | % damage, Viola (Viola): 100% | % damage, Wheat (Wheat): 10%

Compound: CC(Nc1nc(N)nc(C(Cl)Cl)n1)c1ccc(Cl)cc1 (stereo not shown) [drawing 119]
pest or weed control at 250 g/ha (Amaranthus): 100% | pest or weed control at 250 g/ha (Chenopodium): 100% | pest or weed control at 250 g/ha (Polygonum): 100% | pest or weed control at 250 g/ha (Setaria): 90% | pest or weed control at 250 g/ha (Viola): 100% | plant injury at 250 g/ha (Wheat): 10%

Compound: CC(Cl)c1nc(N)nc(NC(C)c2ccc(Cl)cc2)n1 (stereo not shown) [drawing 125]
% damage, Amaranthus (Amaranthus): 100% | % damage, Chenopodium (Chenopodium): 95% | % damage, Polygonum (Polygonum): 95% | % damage, Setaria (Setaria): 80% | % damage, Viola (Viola): 95% | % damage, Wheat (Wheat): 10%

Compound: CSc1ccc(C(C)Nc2nc(N)nc(C(C)(Cl)Cl)n2)cc1 (stereo not shown) [drawing 114]
pest or weed control at 500 g/ha (Amaranthus): 100% | pest or weed control at 500 g/ha (Chenopodium): 100% | pest or weed control at 500 g/ha (Polygonum): 100% | pest or weed control at 500 g/ha (Setaria): 80% | pest or weed control at 500 g/ha (Viola): 100% | plant injury at 500 g/ha (Wheat): 0%

More lines, main results first:

melting point: 118 °C
Compound: CC(=O)Nc1nc(NC(C)c2ccc(Cl)cc2)nc(C(C)(Cl)Cl)n1 (stereo not shown) [Example 160]
activity against weeds (weeds [1]): strong activity

melting point: 149 °C
Compound: COCc1nc(N)nc(NC(C)c2ccc(Cl)cc2)n1 (stereo not shown) [Example 98]
activity against weeds (weeds [2]): strong activity

melting point: 116 °C
Compound: CCC(Nc1nc(NC(C)=O)nc(C(F)(F)F)n1)c1ccc(Cl)cc1 (stereo not shown) [Example 90]
activity against weeds (weeds [2]): strong activity

melting point: 126 °C
Compound: CC(=O)Nc1nc(NC(C)c2ccc(Cl)cc2)nc(C(C)Cl)n1 (stereo not shown) [Example 146]
activity against weeds (weeds [2]): strong activity

melting point: 131 °C
Compound: CC(=O)Nc1nc(NC(C)c2ccc(Cl)cc2)nc(C(Cl)Cl)n1 (stereo not shown) [Example 175]
activity against weeds (weeds [2]): strong activity

melting point: 133 °C
Compound: CC(Nc1nc(N)nc(C(Cl)Cl)n1)c1ccc(Cl)cc1 (stereo not shown) [Example 168]
activity against weeds (weeds [2]): strong activity

melting point: 141 °C
Compound: COCc1nc(NC(C)=O)nc(NC(C)c2ccc(SC)cc2)n1 (stereo not shown) [Example 103]
activity against weeds (weeds [2]): strong activity

melting point: 132 °C
Compound: CC(=O)Nc1nc(NC(C)c2ccc(Cl)cc2)nc(C(Cl)Cl)n1 (stereo not shown) [Example 145]
activity against weeds (weeds [2]): strong activity

melting point: 182 °C
Compound: CCc1nc(NC(C)=O)nc(NC(C)c2ccc(Cl)cc2)n1 (stereo not shown) [Example 173]
activity against weeds (weeds [2]): strong activity

melting point: 130 °C
Compound: COc1ccc(C(C)Nc2nc(NC(C)=O)nc(C(F)(F)F)n2)cc1 (stereo not shown) [Example 82]
activity against weeds (weeds [2]): strong activity

melting point: 132 °C
Compound: CSc1ccc(C(C)Nc2nc(NC(C)=O)nc(C(F)(F)F)n2)cc1 (racemic) [Example 2, 2-acetylamino-4-trifluoromethyl-6-[1-(4-methylthio-phenyl)-ethylamino]-1,3,5-triazine]

melting point: 125 °C
Compound: CSc1ccc(C(C)Nc2nc(N)nc(C(Cl)Cl)n2)cc1 (stereo not shown) [Example 108]
activity against weeds (weeds [2]): strong activity

melting point: 155 °C
Compound: COCc1nc(NC(C)=O)nc(NC(C)c2ccc(Cl)cc2)n1 (stereo not shown) [Example 178]
activity against weeds (weeds [2]): strong activity

melting point: 108 °C
Compound: COc1ccc(C(C)Nc2nc(NC(C)=O)nc(C(F)(F)F)n2)cc1 (stereo not shown) [Example 84]
activity against weeds (weeds [2]): strong activity

melting point: 110 °C
Compound: CC(=O)Nc1nc(NC(C)c2ccc(Cl)cc2)nc(C(C)Cl)n1 (stereo not shown) [Example 177]
activity against weeds (weeds [2]): strong activity
